Where a SMILES comes first, the peptide text is derived from it.
How the values were obtained:
[1] = tested on: dental pulp stem cells; assay: MTT assay, in-vitro cytotoxicity of synthetic peptides; type: cell-based; conditions: 50-2000 μM, 24, 48 and 72 hours
Experimental: A cell viability test was performed to evaluate the cytotoxicity of the peptides set forth in SEQ ID NOS: 1 to 6 synthesized in Example 2 above. For this purpose, dental pulp stem cells were seeded at a density of 9×10^3 cells per well into each well of a 96-well polystyrene plate in a Dulbecco's Modified Eagle's Medium (Gibco, USA) supplemented with 10% FBS (fetal bovine serum) and a 1% antibiotic-antimycotic solution (Thermo Fisher Scientific, USA), and then cultured for 24 hours. Each well was treated with various concentrations (50 μM, 100 μM, 200 μM, 400 μM, 500 μM, 800 μM, 1000 μM and 2000 μM) of the peptides set forth in SEQ ID NOS: 1 to 6. After 24 hours (1 day), 48 hours (2 days) and 72 hours (3 days), an MTT assay was performed to identify the cytotoxicity of the peptides. For the MTT assay, the medium was removed 24 hours, 48 hours, and 72 hours after treatment with peptide and each well was then treated with a mixture of 180 μl of a DMEM medium and 20 μl of a MTT solution, followed by further culturing for 1 hour. One hour later, the mixed solution was removed, each well was treated with 200 μl of dimethyl sulfoxide (DMSO) and the mixed solution was then transferred into a new 96-well plate and the cytotoxicity thereof was measured. All values were expressed as mean±standard deviation (SD) for triplicate experiments and the measured values are shown in FIG. 3.

[2] = tested on: dental pulp stem cells; assay: Cell permeability of FITC-labeled peptides by confocal microscopy; type: cell-based; conditions: for fluorescence expression at highest concentration: 1000 uM; for cell permeation ability / efficiency: 50-1000 μM
Experimental: In order to identify the cell permeability of the peptides set forth in SEQ ID NOS: 1 to 6 synthesized in Example 2, fluorescein isothiocyanate (FITC) was attached to the N-terminus of each peptide. Dental pulp stem cells were seeded at a density of 3×10^4 cells into a 4-well chamber and cultured in DMEM medium for 24 hours for cell stabilization. 24 hours later, the cells were treated with the FITC-labeled peptide at various concentrations (50 μM, 100 μM, 200 μM, 500 μM, 1000 μM) for 30 minutes. The cells were treated with 100 ng/ml of copine 7 protein for 30 minutes in order to compare the cell permeability thereof with the peptide. Then, in order to compare the intracellular permeation behaviors of these peptides or the protein, each well was treated with 4% paraformaldehyde, fixed at room temperature for 10 minutes, treated with 0.5% Triton-X 100, and cultured at room temperature for 15 minutes. Then, the cells were blocked with a buffer solution (PBS) containing 3% bovine serum albumin (BSA) for 30 minutes. In the case of copine 7 protein, a CPNE7 primary antibody was diluted at a ratio of 1:100 in a buffer solution (PBS) containing 1% bovine serum albumin and reacted at 4° C. for 16 hours. A fluorescein isothiocyanate (FITC)-conjugated secondary antibody was diluted at a ratio of 1:200 and reacted at room temperature for 1 hour. Finally, the nuclei-staining dye (Hoechst 33342, blue) was treated at room temperature for 10 minutes and washed with a buffer solution (PBS), and the fluorescence intensity thereof was measured using a confocal scanning microscope (IX 70, Olympus Co, Tokyo, Japan) to determine the degree of expression. All values were expressed as mean±SD of the fluorescence intensities measured in three different areas, and were compared with the control group (no treatment, NT) (*P<0.05).

[3] = tested on: skull of a New Zealand white rabbit; assay: Bone regeneration ability of a peptide-containing bone graft material in a rabbit skull defect; type: in vivo; conditions: 3 weeks after graft
Experimental: 20 mg and 40 mg of the peptide shown in SEQ ID NO: 4 were dissolved in 100 μL of purified water, and the solution was added to 0.1 g of a bone graft material, allowed to stand at 4° C. for 24 hours and lyophilized. The copine 7 protein was used as a control group in the same manner as above and was incorporated in amounts of 100 μg and 200 μg in 0.1 g of a bone graft material. A defect part with a diameter of 8 mm was formed in the skull of a New Zealand white rabbit (cuniculus) and implanted with 0.1 g of a bone graft material in each defect part. The periosteum and skin were double-sutured. The animal was sacrificed 3 weeks after graft, and the specimen was fixed in a formalin solution and embedded in tissues to obtain a specimen with a thickness of 20 um. The prepared specimen was stained with basic fuchsin and toluidine blue to prepare a non-decalcified sample. The sample was imaged with an optical microscope and analyzed histologically. All values were expressed as mean±SD (SD) of areas measured in three different samples and compared with copine 7 protein (*P<0.05).

[4] = tested on: osteocalcin in dental pulp stem cells (DPSCs); assay: Bone differentiation ability: osteocalcin expression by immunofluorescence; type: cell-based
Experimental: In order to identify the bone differentiation ability of the peptide set forth in SEQ ID NO: 4, which was determined to have the best cell penetration function in Example 4, and the copine 7 protein, expression difference of osteocalcin in dental pulp stem cells (DPSCs) was evaluated.
For this purpose, 1×10^5 DPSCs were suspended in 50 μl of a medium (Dulbecco's Modified Eagle's Medium, Gibco, USA) supplemented with 10% FBS (fetal bovine serum) and a 1% antibiotic-antimycotic solution (Thermo Fisher Scientific, USA) in a 24-well plate. The cells were cultured for 24 hours and then treated with the peptide set forth in SEQ ID NO: 4 at concentrations of 200 μM and 500 μM and the copine 7 protein at a concentration of 100 ng/ml, respectively, while replacing the medium with Differentiation basal medium-Osteogenic (Lonza, USA) supplemented with a supplement (hMSC Osteogenic SingleQuots, Lonza, USA) for 18 days. […] Finally, the cells were treated with the nuclei-staining dye (Hoechst 33342, blue) at room temperature for 10 minutes and washed with buffer (PBS), and the expression level of osteocalcin was determined with a confocal scanning microscope (IX 70, Olympus Co, Tokyo, Japan). All values were expressed as mean±SD of fluorescence intensity measured in three different areas and were compared with the control group (no treatment, NT) (*P<0.05).

[5] = FITC-labeled peptide, 30 minutes, FIG. 4

Compound	cytotoxicity (MTT assay) [1]	fluorescence expression at highest concentration [2, 5]	cell permeation ability / efficiency [2, 5]	further results
CC(C)C[C@H](NC(=O)[C@@H](NC(=O)[C@@H](NC(=O)[C@@H](NC(=O)CNC(=O)[C@H](CO)NC(=O)[C@H](CC(N)=O)NC(=O)[C@H](CCCCN)NC(=O)[C@H](Cc1ccc(O)cc1)NC(=O)[C@@H](N)CO)C(C)C)C(C)C)C(C)C)C(N)=O [SEQ ID NO: 5, SYKNSGVVVL] (H-SYKNSGVVVL-NH2)	intracellularly toxic	–	–	–
CC(C)C[C@H](NC(=O)[C@@H](NC(=O)[C@@H](NC(=O)[C@@H](NC(=O)CNC(=O)[C@H](CO)NC(=O)[C@H](CC(N)=O)NC(=O)[C@H](CCCCN)NC(=O)[C@H](Cc1ccc(O)cc1)NC(=O)[C@H](CO)NC(=O)[C@H](CCCNC(=N)N)NC(=O)[C@H](CCCNC(=N)N)NC(=O)[C@H](CCCCN)NC(=O)[C@H](CCC(N)=O)NC(=O)[C@H](CCCCN)NC(=O)[C@H](Cc1ccc(O)cc1)NC(=O)[C@H](CCCCN)NC(=O)[C@@H]1CCCN1C(=O)[C@H](CC(N)=O)NC(=O)[C@@H](N)C(C)C)C(C)C)C(C)C)C(C)C)C(N)=O [SEQ ID NO: 6] (H-VNPKYKQKRRSYKNSGVVVL-NH2)	intracellularly toxic	–	–	–
FEEGQAQWDC (Dual functional candidate peptide for cell penetration and bone tissue regeneration) [SEQ ID NO: 2, peptide from copine 7 protein, position 331-340]	–	weak fluorescence	–	–
FEEGQAQWDCVNPKYKQKRR (Dual functional candidate peptide for cell penetration and bone tissue regeneration) [SEQ ID NO: 3, peptide from copine 7 protein, position 331-350]	–	–	relatively excellent cell permeation efficiency	–
STTFEEMQKA (Dual functional candidate peptide for cell penetration and bone tissue regeneration) [SEQ ID NO: 1, peptide from copine 7 protein, position 321-330]	–	no fluorescence expression	no cell permeation ability	–
VNPKYKQKRR (Dual functional peptide for cell penetration and bone tissue regeneration) [SEQ ID NO: 4, peptide from copine 7 protein, position 341-350]	–	–	best cell permeation efficiency	fluorescence at 100 μM ([2]; FITC-labeled peptide, 100 μM, 30 minutes, FIG. 4): had fluorescence; cell permeability compared with copine 7 protein (confocal microscope) ([2]; versus 100 ng/ml copine 7 protein, 30 minutes, FIG. 5A): better cell permeability than the copine 7 protein; quantified fluorescence intensity compared with copine 7 protein ([2]; versus 100 ng/ml copine 7 protein, FIG. 5B): strong fluorescence intensity compared to the copine 7 protein; effect of regenerating new bone at the skull defect part ([3]; bone graft material with 20 mg or 40 mg peptide versus 100 μg or 200 μg copine 7 protein, FIG. 7A): excellent effect of regenerating new bone; bone regeneration area (histomorphometric analysis) ([3]; versus copine 7 protein, FIG. 7B): significantly wider bone regeneration area than the copine 7 protein; expression degree of osteocalcin as fluorescence intensity ([4]; 200 μM and 500 μM peptide versus 100 ng/ml group, 18 days, FIG. 6): relatively stronger fluorescence intensity; bone differentiation ability compared with copine 7 protein ([4]; DPSCs, 18 days in osteogenic medium): superior to the copine 7 protein

— patent publication US10836795B2, “Dual functional novel peptide having cell permeability and bone tissue regeneration ability, and use thereof” (SEOUL NATIONAL UNIVERSITY R&DB FOUNDATION, priority 2016, dated 2020)
